Common to all, as to experiment: DTP human tumour cell line panel, 48 h
Assay [1] relates to ACHN renal.
Assay [2] deals with BT-549 breast.
For assay [3], the system named is DU-145 prostate.
In assay [4] the test system is HCT-15 colon.
In assay [5] the test system is IGROV1 ovarian.
The test system of assay [6] is LOX IMVI melanoma.
Assay [7] relates to M14 melanoma.
Assay [8] relates to MCF7 breast.
For assay [9], the system named is MDA-N.
In assay [10] the test system is NCI-H226 lung.
In assay [11] the test system is NCI-H23 lung.
Assay [12] deals with NCI-H460 lung.
Assay [13] relates to OVCAR-8 ovarian.
Assay [14] deals with RPMI-8226 leukemia.
The test system of assay [15] is SF-268 CNS.
Assay [16] has as its system SK-MEL-5 melanoma.
Assay [17] has as its system TK-10 renal.
Assay [18] deals with HCC-2998 colon.
In assay [19] the test system is T-47D breast.

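Protocol summary: plate cells (96-well), add compound at 5 concentrations, incubate 48 h, interpolate endpoints linearly. TGI: total growth inhibition.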

In general, TGI refers to the concentration at which net growth stops.

In the case of `S=C(c1c[nH]c2ccccc12)N1CCN(c2ccccc2)CC1`, the TGI in [1], in assay [2], in assay [3], in [4], in assay [5] and in assay [6] was greater than 100 µM in each case. Besides, the TGI in [7], in [8], in assay [9], in [10], in assay [11] and in assay [12] was greater than 100 µM each time. The total growth inhibition concentration (TGI) in assay [13], in assay [14], in assay [15], in assay [16] and in [17] was greater than 100 µM each time.

As for `CCn1c(-c2ccc(C)cc2)cs/c1=N\C(P(=O)(O)O)P(=O)(O)O`, the TGI in assay [1], in [2], in [3], in assay [18], in assay [4] and in [5] was greater than 100 µM throughout. Moreover, the TGI in [6], in assay [7], in [8], in assay [9], in [10] and in [11] was greater than 100 µM in each case. Moreover, the total growth inhibition concentration (TGI) in assay [12], in assay [13], in [14], in [15], in [16] and in assay [17] was greater than 100 µM in each case.

For `Nc1nc(N)c2nnn(C[C@H]3CC[C@@H](CO)C3)c2n1`, the TGI in assay [1], in assay [2], in assay [3], in assay [18], in [4] and in assay [5] was greater than 100 µM throughout. The TGI in [6], in [7], in assay [8], in [9], in assay [10] and in assay [11] was greater than 100 µM throughout. Further, the TGI in [12], in [13], in [14], in assay [15] and in assay [17] was greater than 100 µM throughout.

On to `CC(NC(=O)C(N)CC(=O)O)NC(=O)N1CCOCC1` (stereo not given), for which the concentration for total growth inhibition (TGI) in assay [1], in assay [2], in assay [3], in assay [4], in assay [5] and in assay [6] was greater than 100 µM throughout. The TGI in assay [7], in assay [8], in assay [9], in [10], in assay [11] and in assay [12] was greater than 100 µM each time. Further, the TGI in assay [13], in [14], in assay [15], in assay [16] and in [17] was greater than 100 µM in each case.

Consider `CCc1n[nH]c(=O)n1NC(=O)c1ccccc1C(=O)O`, for which the concentration for total growth inhibition (TGI) in assay [1], in assay [2], in [3], in assay [18], in [4] and in [5] was greater than 100 µM throughout. The concentration for total growth inhibition (TGI) in [6], in assay [7], in assay [8], in [9], in assay [11] and in [13] was greater than 100 µM throughout. Moreover, the TGI in assay [14], in assay [15], in assay [16] and in assay [17] was greater than 100 µM each time.

For `CCN(CC)CCSc1nc2c(c(=N)n1-c1ccccc1)c(=S)n(-c1ccccc1)c(=S)n2-c1ccccc1`, the total growth inhibition concentration (TGI) in assay [1] stood at 3.16 µM; in [2], 5.98 µM; in assay [3], 3.05 µM; in assay [18], 3.15 µM; in assay [4], 4.35 µM; in assay [5], 3.24 µM. In addition, the total growth inhibition concentration (TGI) in [6] was 3.34 µM; in assay [7], 5 µM; in [9], 6.55 µM; in assay [10], 50.4 µM; in [11], 10.8 µM; in [12], 3.86 µM. Also, the TGI was determined as 3.54 µM in assay [13]; 1.02 µM in [14]; 3.9 µM in [15]; 11.4 µM in assay [16]; 9.03 µM in assay [19]; 3.17 µM in [17].

In the case of `O=C1CCCCC[C@]12SC[C@H]1CON=C12`, the concentration for total growth inhibition (TGI) in assay [1], in assay [2], in [3], in [18], in assay [4] and in assay [5] was greater than 100 µM in each case. In addition, the concentration for total growth inhibition (TGI) in assay [6] is greater than 100 µM; in [7] it was 62 µM; in [8], 82.4 µM; in [9] it was 32.5 µM; in assay [10], greater than 100 µM; in assay [11] it was greater than 100 µM. The TGI in assay [12], in assay [13], in assay [14], in assay [16] and in assay [17] was greater than 100 µM throughout.

On to `O=S(=O)(O)c1ccc2c(N=Nc3ccccc3Cl)c(O)ccc2c1`, for which the TGI in [1], in assay [2], in assay [3], in [4], in [5] and in [6] was greater than 100 µM in each case. The TGI in assay [7], in assay [9], in assay [11], in assay [13], in assay [14] and in [15] was greater than 100 µM throughout. Further, the concentration for total growth inhibition (TGI) in assay [16], in assay [19] and in [17] was greater than 100 µM throughout.

The values are drawn from PubChem BioAssay (NCI).
